Experimental data reported in US10676429B2, “Sulfamoyl-arylamides and the use thereof as medicaments for the treatment of hepatitis B” (priority 2012, dated 2020).

What was measured:
HBV [1] = experiment: Anti-HBV activity in HepG2.117 cell line (Tet-off, intracellular HBV DNA, realtime PCR); type: cell-based; settings: Hepatitis B virus, HepG2.117, 72 h, HepG2.117 cells, 3 days of treatment, intracellular HBV DNA; read-out: HepG2 117 EC50
HBV [2] = experiment: Anti-HBV activity in stable transfected HepG2.2.15 cell line (HBV DNA from secreted virions, realtime PCR); type: cell-based; settings: Hepatitis B virus, HepG2.2.15, 144 h, HepG2.2.15 cells, 6 days of treatment, secreted virion HBV DNA; read-out: HepG2 2.15 EC50
[3] = Cytotoxicity in HepG2 cells, 4 days, Resazurin assay; settings: human, HepG2 cells
HepG2 cells = experiment: Cytotoxicity in HepG2 cells using CellTiter-Blue (6 days); settings: read-out: HepG2 6 days CC50, 6 days, CellTiter-Blue

**Q.** With `O=C(Nc1ccc(F)cc1)c1ccc(Cl)c(S(=O)(=O)N2CCCCCC2)c1` [Compound 23] as the compound, how does the EC50 (HBV [1]) read?
**A.** 1.3 µM

**Q.** And the EC50 (HBV [2])?
**A.** 0.66 µM

**Q.** What about the CC50 at 4 days [3] of the same compound?
**A.** 19.6 µM

**Q.** And the CC50 (HepG2 cells)?
**A.** 17 µM
